Measurements as given in publication PMC10368209, “Indolo[2,3-e]benzazocines and indolo[2,3-f]benzazonines and their copper(II) complexes as microtubule destabilizing agents” (Dalton Transactions (Cambridge, England : 2003), 2023).
Converted amounts (≈) assume the structure as drawn. “And” between values parts separate entries of the source, which are not always exact repeats. Identical values can stand only once. Like-named read-outs stand apart in the source and are kept apart here. One block for each compound: values may come before it.

Key:
[1] = system: tubulin (colchicine site); assay: Inhibition of [3H]colchicine binding to tubulin; details: 0.5 μM tubulin, 5 μM [3H]colchicine
Protocol: (§1) The methods used to determine the IC50 values for tubulin assembly and inhibition of [^3H]colchicine binding were recently described in detail.[96] In brief, for the assembly assay, 0.25 mL reaction mixtures contained 1.0 mg mL^−1 (10 μM) tubulin, 0.8 M monosodium glutamate (pH 6.6 with HCl in 2.0 M stock solution), 4% (v/v) DMSO (compound solvent), varying compound concentrations, and 100 μM GTP. All components except GTP were preincubated at 30 °C for 15 min in a 0.24 mL volume. Reaction mixtures were then placed on ice, and the GTP was added in a 10 μL volume. Assembly was monitored in Beckman DU7400/7500 spectrophotometers equipped with electronic temperature controllers and driven by a custom program. The samples were transferred to cuvettes held at 0 °C, and the temperature was jumped to 30 °C over about 30 s. Change in turbidity was measured for 20 min at 350 nm, and the IC50 was defined as the compound concentration that reduced the extent of reaction by 50%. For the colchicine binding assay, reaction mixtures contained 0.05 mg mL^−1 (0.5 μM) tubulin, 5.0 μM [^3H]colchicine, 5% (v/v) DMSO (compound solvent), compound as indicated, and components found to stabilize the colchicine binding activity of tubulin. Incubation was for 10 min at 37 °C, at which time the amount of colchicine bound to the tubulin is 40–60% of maximum. Each reaction mixture was diluted with 2.0 mL of ice cold water and poured onto a single Whatman DEAE-cellulose filter (tubulin binds tightly to the filter, and unbound colchicine passes through). Gravity filtration was used for the samples, and the filters were then washed with three 2.0 mL aliquots of ice cold water (vacuum aspiration). The filters were counted in a Beckman scintillation counter, with correction for the amount of radiolabel bound to filters in the absence of tubulin.

purified tubulin = assay: Inhibition of tubulin assembly (turbidity); type: biochemical; details: 10 μM tubulin, 30 °C, turbidity at 350 nm; read-out: Inhibition of tubulin assembly IC50 ± SD
Protocol: as §1, with “Incubation was for 10 min at 37 °C, at which time the amount of colchicine bound to the tubulin is 40–60% of maximum. Each reaction mixture was diluted with 2.0 mL of ice cold water and poured onto a single Whatman DEAE-cellulose filter (tubulin binds tightly to the filter, and unbound colchicine passes through). Gravity filtration was used for the samples, and the filters were then washed with three 2.0 mL aliquots of ice cold water (vacuum aspiration).” left out

[2] = system: MCF-7 breast cancer cells; assay: In vitro cytotoxicity MTT assay; type: cell-based, human; details: for IC50: 72 h incubation, MTT
Protocol: The human cancer cell lines were purchased from LGC Promochem (Teddington, UK), and the MRC-5 cell line is a Sigma-Aldrich (Merck KGaA, Darmstadt, Germany) product. […] The MCF-7 and MRC-5 cells were cultured in Eagle's Minimal Essential Medium (EMEM) containing 4.5 g L^−1 of glucose and supplemented with a non-essential amino acid mixture, a selection of vitamins and 10% FBS. […] The cells were detached with Trypsin-Versene (EDTA) solution for 5 min at 37 °C.
Prior to the cytotoxicity assays 10 mM stock solutions of the tested compounds were prepared in DMSO. […] The positive control was doxorubicin (Merck), and CuCl2 was also tested. All cancer cells were treated with Trypsin-Versene (EDTA) solution. […] The final volume was 200 μL in the wells containing compounds and cells. The MCF-7 and MRC-5 cells were seeded overnight prior to the assay. The following day, the serial dilution of the compounds were made in separate plates and added to the cells. The culture plates were incubated at 37 °C for 72 h; and at the end of the incubation period, 20 μL of 5 mg mL^−1 3-(4,5-dimethylthiazol-2-yl)-2,5-diphenyltetrazolium bromide (MTT) solution was added to each well and incubated for 4 h at 37 °C. The plates were further incubated at 37 °C overnight following the addition of 100 μL of sodium dodecyl sulfate (SDS) solution (10% in 0.01 M HCl). The optical density (OD) was measured at 450 nm (ref. 620 nm) with a Multiscan EX ELISA reader to follow the cell growth. […] The sigmoidal dose–response model (comparing variable and fixed slopes) of the GraphPad Prism software[88] was used to fit the curves. The IC50 values are averages from at least 3 independent experiments.

[3] = system: doxorubicin-resistant Colo320 human colon adenocarcinoma cell line; assay: In vitro cytotoxicity MTT assay; type: cell-based; details: for IC50: 72 h incubation, MTT
From the text: (§2) Four cell lines were used in this study: the doxorubicin-sensitive Colo205 (CCL-222, ATCC, Manassas, VA, USA) human colon adenocarcinoma cell line; the doxorubicin-resistant Colo320/MDR-LRP expressing P-glycoprotein (P-gp, ABCB1) (MDR1)-LRP (CCL-220.1, ATCC) human colon adenocarcinoma cell line; the hormone-responsive MCF-7 breast cancer cell line and the normal MRC-5 human embryonal lung fibroblast cell line (CCL-171, ATCC). The human cancer cell lines were purchased from LGC Promochem (Teddington, UK), and the MRC-5 cell line is a Sigma-Aldrich (Merck KGaA, Darmstadt, Germany) product. The Colo205 and Colo320 cell lines were cultured in RPMI 1640 medium supplemented with 10% fetal bovine serum (FBS), 2 mM L-glutamine, 1 mM Na-pyruvate and 10 mM HEPES. The MCF-7 and MRC-5 cells were cultured in Eagle's Minimal Essential Medium (EMEM) containing 4.5 g L^−1 of glucose and supplemented with a non-essential amino acid mixture, a selection of vitamins and 10% FBS. All cell lines were incubated at 37 °C, 5% CO2, 95% air atmosphere. The cells were detached with Trypsin-Versene (EDTA) solution for 5 min at 37 °C.
(§3) Prior to the cytotoxicity assays 10 mM stock solutions of the tested compounds were prepared in DMSO. These stock solutions were diluted with the culture medium (EMEM or RPMI 1640), and twofold serial dilutions of the compounds were prepared in 100 μL of the appropriate medium. […] The positive control was doxorubicin (Merck), and CuCl2 was also tested. All cancer cells were treated with Trypsin-Versene (EDTA) solution. A cell density of 1 × 10^4 cells was adjusted for the colon adenocarcinoma cells in 100 μL of RPMI 1640 medium and were added to each well, except for the medium control wells. The final volume was 200 μL in the wells containing compounds and cells. The MCF-7 and MRC-5 cells were seeded overnight prior to the assay. The following day, the serial dilution of the compounds were made in separate plates and added to the cells. The culture plates were incubated at 37 °C for 72 h; and at the end of the incubation period, 20 μL of 5 mg mL^−1 3-(4,5-dimethylthiazol-2-yl)-2,5-diphenyltetrazolium bromide (MTT) solution was added to each well and incubated for 4 h at 37 °C. The plates were further incubated at 37 °C overnight following the addition of 100 μL of sodium dodecyl sulfate (SDS) solution (10% in 0.01 M HCl). The optical density (OD) was measured at 450 nm (ref. 620 nm) with a Multiscan EX ELISA reader to follow the cell growth. Inhibition of cell growth (expressed as IC50: inhibitory concentration that reduces by 50% the growth of the cells exposed to the tested compounds) was determined from the sigmoid curve, where 100 − ((ODsample − ODmedium control)/(ODcell control − ODmedium control)) × 100 values were plotted against the logarithm of compound concentrations. The sigmoidal dose–response model (comparing variable and fixed slopes) of the GraphPad Prism software[88] was used to fit the curves. The IC50 values are averages from at least 3 independent experiments.

[4] = system: Colo205 human colon adenocarcinoma cell line; assay: In vitro cytotoxicity MTT assay; type: cell-based; details: for IC50: 72 h incubation, MTT
From the text: as §2, §3

[5] = system: normal human embryonal lung fibroblast cells (MRC-5); assay: In vitro cytotoxicity MTT assay; type: cell-based
From the text: as §2, §3

[6] = Stability constants and pKa of Cu(II) complexes by UV-vis titrations; type: physicochemical; details: 30:70% (v/v) DMSO/H2O
Protocol: (§4) The UV–vis spectra were recorded on an Agilent Cary 8454 diode array spectrophotometer between 200 and 800 nm. Spectrophotometric titrations were carried out on samples containing the ligand (HL^1, HL^2, HL^5 or HL^1(7)) or the ligand and Cu(II) ions together at different ligand-to-metal ratios (1 : 1, 1.5 : 1, 2 : 1) by a KOH solution in a DMSO : water 30 : 70 (v/v) mixture as solvent at 25.0 ± 0.1 °C in the pH range from 1.7 to 12.7 using 0.1 M KCl ionic strength. The concentration of ligands was 10 μM. The path length was 5 cm. For pH measurements and titrations, an Orion 710A pH-meter equipped with a Metrohm combined electrode (type 6.0234.100) and a Metrohm 665 Dosimat burette was used. Blank titrations (HCl vs. KOH) were performed similarly to the method proposed by Irving et al. for pure aqueous solutions to calibrate the electrode system to the pH = −log[H+] scale in the DMSO–water solvent mixture.[83] The water ionization constant (pKw) was determined to be 14.52 ± 0.05 on average, which is in line with the literature data.[84] During the titrations argon was passed over the solutions. The computer program PSEQUAD was used to calculate the proton dissociation constants (pKa) of the ligands, the overall stability constants (log β) of the Cu(II) complexes and the individual spectra of the various species present in solution.[85] In the general equilibrium pM + qL + rH ⇌ MpLqHr the stability constants is defined as β(MpLqHr) = [MpLqHr]/[M]^p[L]^q[H]^r, where M denotes the Cu(II) ion and L the completely deprotonated ligand. The calculations were always performed from experimental data where no precipitation was observed during titration.

ct-DNA = assay: Ethidium displacement from ct-DNA by spectrofluorimetry; type: binding, calf; details: cDNA = 0.5 μM, cethidium = 0.25 μM, 298 K, 10 mM HEPES, pH 7.40
Protocol: Fluorescence measurements were carried out on a Fluoromax (Horiba Jobin Yvon) fluorimeter. Stock solutions of the complexes and ligands were prepared in pure DMSO (c = 1 or 0.5 mM). Stock solution of ct-DNA was prepared as described recently.[86] The sample volume was […] and contained 0.5 μM ct-DNA expressed in base pairs, 0.25 μM ethidium and different concentrations of complexes 1, 2, 4, 5, 6, 4(6), 4(7) or ligands (HL^1, HL^2, HL^5, HL^6) in 10 mM HEPES buffer (pH 7.40). DMSO content of the samples varied between 0 and 1% (v/v). The excitation wavelength was 510 nm, and the fluorescence emission was measured in the range of 530–750 nm. Corrections for self-absorbance and inner filter effect were performed as described previously.[87]

[7] = Thermodynamic solubility by UV-vis in saturated solutions; type: physicochemical; details: 20 mM HEPES buffer, 25 °C, aqueous buffer, thermodynamic from solid; pH 7.4 (20 mM HEPES), aqueous solution, T = 298 K, I = 0.10 M (KCl); read-out: Thermodynamic solubility S 7.4
Protocol: The thermodynamic solubility (S) of the studied compounds was determined in saturated solutions at pH 7.40 (20 mM HEPES buffer) in the absence of DMSO at 25.0 ± 0.1 °C. UV–vis spectrophotometry was applied to determine the concentration of the compounds using calibrating samples of the compounds of known concentrations dissolved in 100% DMSO and 50% (v/v) DMSO/buffered aqueous solutions.

[8] = Proton dissociation constants of ligands by UV-vis titrations; type: physicochemical; details: DMSO:water 30:70 (v/v) mixture, 30:70% (v/v) DMSO/H2O, T = 298 K, I = 0.10 M (KCl)
Protocol: as §4, with “In the general equilibrium pM + qL + rH ⇌ MpLqHr the stability constants is defined as β(MpLqHr) = [MpLqHr]/[M]^p[L]^q[H]^r, where M denotes the Cu(II) ion and L the completely deprotonated ligand. The calculations were always performed from experimental data where no precipitation was observed during titration.” left out

[9] = Cu(II) complex of the ligand, T = 298 K, I = 0.10 M (KCl)
[10] = selectivity factor normal vs cancer cells
[11] = Homo sapiens, MRC5, 72 h incubation

Structure (SMILES): COc1ccc(/C=C\c2cc(OC)c(OC)c(OC)c2)cc1O [CA-4, combretastatin A-4, reference compound]
- Inhibition of colchicine binding % inhibition ± SD ([1]; 0.5 μM inhibitor): 81 ± 4%
- Inhibition of colchicine binding % inhibition ± SD ([1]; 5 μM inhibitor): 98 ± 0.9%

Structure (SMILES): [Cl][Cu][Cl] [CuCl2, reference compound]
- IC50 [2]: 32 ± 3 µM
- IC50 [3]: 20 ± 2 µM
- IC50 [4]: 33 ± 1 µM
- IC50 ([5]; 72 h incubation): 40 ± 1 µM

- log β [Cu(HL)]^2+ [6, 9]: 8.55 ± 0.02
- log β [Cu(L)]^+ [6, 9]: 4.14 ± 0.02
- log K′ [Cu(L)]^+ ([6]; K′: H2(HL)^2+ + Cu^2+ ⇌ [Cu(L)]^+ + 3H^+, 298 K): −2.97
- solubility thermodynamic [7]: 8 µM (≈ 2.92 µg/mL)
- Inhibition of colchicine binding % inhibition ± SD ([1]; 5 μM inhibitor): 18 ± 5%
- Inhibition of colchicine binding % inhibition ± SD ([1]; 25 μM inhibitor): 46 ± 5%
- pKa ([8]; read-out: pKa1 H2(HL)^2+): 2.07 ± 0.01
- pKa ([8]; read-out: pKa2 H(HL)^+): 5.04 ± 0.02
Structure (SMILES): C(=N\N=C1/NCCc2ccccc2-c2c1[nH]c1ccccc21)/c1ccccn1 [HL^1]
- Displacement of intercalated ethidium from ct-DNA (in words) (ct-DNA): could not displace the intercalated ethidium cation
- IC50 ([2]; Homo sapiens, MCF7): 1.3 ± 0.1 µM
- SF (MCF-7) = IC50 MRC-5/IC50 MCF-7 [2, 10]: 31.03
- IC50 ([3]; Homo sapiens, COLO 320): 5.6 ± 0.1 µM
- SF (Colo320) = IC50 MRC-5/IC50 Colo320 [3, 10]: 7.26
- IC50 ([4]; Homo sapiens, COLO 205): 30 ± 2 µM
- SF (Colo205) = IC50 MRC-5/IC50 Colo205 [4, 10]: 1.37
- IC50 [5, 11]: 40 ± 1 µM

Structure (SMILES): COc1cccc2c1C(=O)c1c(O)c3c(c(O)c1C2=O)C[C@@](O)(C(=O)CO)C[C@@H]3O[C@H]1C[C@H](N)[C@H](O)[C@H](C)O1 [Doxorubicin, doxorubicin, reference compound]
- IC50 ([2]; Homo sapiens, MCF7): 0.21 ± 0.03 µM
- IC50 ([3]; Homo sapiens, COLO 320): 3.3 ± 0.1 µM
- IC50 ([4]; Homo sapiens, COLO 205): 0.82 ± 0.02 µM
- IC50 [5, 11]: 1.16 ± 0.11 µM
